Measured values reported in patent US20260167679A1, “FUSION PROTEIN TARGETING MITOCHONDRIA, METHOD OF MAKING AND USE THEREOF” (UNIVERSITY OF ROCHESTER, priority 2020, published 2026).

Columns and labels:
Format in all cases: in vivo, Caenorhabditis elegans
C. elegans [1] = test: Hypoxia and reoxygenation with hypoxic preconditioning; conditions: +ATR, baseline survival, n=12 independent experiments
Method: (§1) Experiments were carried out using a hypoxic chamber (Coy Laboratory Products, 5%/95% H2/N2 gas, palladium catalyst) at 26° C. with 50-100 animals per plate. O2 was <0.01%. Hypoxic preconditioning (PC) duration was 4 h, and control animals were incubated at 26° C. in room air for the same time. 1 Hz illumination (Quantum LED, 0.02 mW/mm^2) was carried out during PC period or during the hypoxic period. Hypoxic exposure was for 18.5, 21 h after PC. Twenty-four hours after hypoxia exposure, animals that were moving or those that moved in response to a light touch to the head were scored as alive. Data from days where PC was at least 15% effective for both +ATR and −ATR were used. Animals supplemented with ATR were allowed to lay eggs onto plates with no ATR that were subsequently used for HR experiments to minimize confounding effects of ATR. ATR from the parent animal was sufficient to provide active mtON in progeny as tested by the azide toxin assay described above. […] FCCP dissolved in ethanol was deposited onto seeded NGM plates.

C. elegans [2] = test: ETC inhibitor assays, survival of animals
Method: Experiments were performed on at least three separate days, using 15-100 young adult animals per plate. Seeded plates were supplemented with rotenone (50 μM final concentration), antimycin A (50 μM final concentration), or oligomycin A (31 μM final concentration) 24 h before animals were transferred onto them. For azide toxicity, animals were placed in M9 buffer with 250 mM azide. Control plates were kept in the dark, and experimental plates were exposed to 1 Hz light (Quantum LED, 0.02 mW/mm^2) for the duration of the experiment. For all toxins, animals that were moving or those that moved in response to a light touch to the head were scored as alive. For rotenone, surviving animals were scored after 5 h. For antimycin A, animals were scored 16 h after exposure. For azide, animals were exposed for 1 h in M9 and allowed to recover for 1 h on a seeded culture plate and then survival was scored. Azide experimental plates were exposed to light (XCite LED, 0.19 mW/mm^2) for the duration of azide treatment and recovery. […]. For oligomycin A, animals were scored 18 h after exposure.
as §1

C. elegans [3] = test: Lifespan of mtON-expressing worms
Text: Light treatment began at day 1 of adulthood for all experiments, a, Survival curves of mtON-expressing animals (extrachromosomal array). […] One-way ANOVA with Tukey's test; n=30 animals for day 4 conditions and 40 animals for day 10. […] The dotted arrow represents the molecular mechanisms to be investigated that link Δψm to aged physiology.
A) survival curve with the same conditions as FIG. 15B, but with light intensity (0.005 mW/cm2) below the threshold for mtON activation (0.01 mW/cm2). […] B) Survival curves of mtON-expressing animals versus mtON-expressing animals in a long-lived genetic background containing a constitutively active AMPK mutation.
Strain APW32 expresses mtON as an extrachromosomal array (mtON ext. chr. array), and strain APW273 expresses mtON in single copy through CRISPR/Cas9 genome integration (mtON CRISPR). See methods section for genotype details. Light intensity was varied to maintain temperature as best as possible, and proximal temperature readings directly adjacent to assay plates are reported to show local temperature variability from different incubators and from different light sources. All incubators were set to 20° C.

SMILES | survival after hypoxia and reoxygenation (baseline) (C. elegans [1]) | survival (C. elegans [2]; 50 μM rotenone for 5 hours, +ATR −light (ATR alone)) | survival (C. elegans [2]; azide toxin assay, progeny of ATR-supplemented parents, +ATR −light) [%] | lifespan (C. elegans [3]; ATR and light in wild-type animals) | lifespan or physiology (C. elegans [3]; ATR supplementation alone) | lifespan (C. elegans [3]; FCCP on its own)
CC1=C(/C=C/C(C)=C/C=C/C(C)=C/C=O)C(C)(C)CCC1 [ATR, all trans-retinal, reference compound] | 49.7+/−20.3% | protective | 27.5 | did not affect lifespan | does not affect lifespan or physiology | 
N#CC(C#N)=NNc1ccc(OC(F)(F)F)cc1 [FCCP, carbonyl cyanide p-(trifluoromethoxy)phenylhydrazone, reference compound] |  |  |  |  |  | no effect on lifespan
